Consider four molecules from ChEMBL document CHEMBL1955762, “An iminosugar N-pentafluorobenzyl-1-deoxynojirimycin as a novel potential immunosuppressant for the treatment of Th2-related diseases” (Bioorg Med Chem Lett, 2012).

The subject of data set [1] is T-cell. As to the kind of experiment: Immunosuppressant activity in human CD4+ T cells assessed as Con A-induced intracellular IL4 level at 90 uM after 72 hrs by flow cytometry (reference value: 4.2+/-0.9%). It is filed as functional. (In flow cytometry, cells or beads pass a laser one at a time.)
Data set [2] has as its system PBMC. As to the kind of experiment: Inhibition of Con-A-induced phospho-STAT6 expression in human PBMC at 90 uM after 72 hrs by flow cytometry (reference value: 10.52+/-1.9%). It is filed as functional. Particulars: read-out: INH.
Data set [3] relates to PBMC. As to the kind of experiment: Inhibition of ConA-induced phospho-JAK1 expression in human PBMC at 90 uM after 72 hrs by flow cytometry. It counts as functional, cell-based.
The subject of data set [4] is PBMC. As to the kind of experiment: Inhibition of Con A-induced phospho-GATA3 expression in human PBMC at 90 uM after 72 hrs by flow cytometry. It is filed as functional, cell-based.
In data set [5] the target is Tyrosine-protein kinase JAK1 (Homo sapiens) (UniProt P23458). In words: Inhibition of PMA-induced JAK1 phosphorylation in human PBMC at 90 uM after 15 mins by Western blot analysis.
Chain of Tyrosine-protein kinase JAK1 (Homo sapiens) (P23458 whole entry): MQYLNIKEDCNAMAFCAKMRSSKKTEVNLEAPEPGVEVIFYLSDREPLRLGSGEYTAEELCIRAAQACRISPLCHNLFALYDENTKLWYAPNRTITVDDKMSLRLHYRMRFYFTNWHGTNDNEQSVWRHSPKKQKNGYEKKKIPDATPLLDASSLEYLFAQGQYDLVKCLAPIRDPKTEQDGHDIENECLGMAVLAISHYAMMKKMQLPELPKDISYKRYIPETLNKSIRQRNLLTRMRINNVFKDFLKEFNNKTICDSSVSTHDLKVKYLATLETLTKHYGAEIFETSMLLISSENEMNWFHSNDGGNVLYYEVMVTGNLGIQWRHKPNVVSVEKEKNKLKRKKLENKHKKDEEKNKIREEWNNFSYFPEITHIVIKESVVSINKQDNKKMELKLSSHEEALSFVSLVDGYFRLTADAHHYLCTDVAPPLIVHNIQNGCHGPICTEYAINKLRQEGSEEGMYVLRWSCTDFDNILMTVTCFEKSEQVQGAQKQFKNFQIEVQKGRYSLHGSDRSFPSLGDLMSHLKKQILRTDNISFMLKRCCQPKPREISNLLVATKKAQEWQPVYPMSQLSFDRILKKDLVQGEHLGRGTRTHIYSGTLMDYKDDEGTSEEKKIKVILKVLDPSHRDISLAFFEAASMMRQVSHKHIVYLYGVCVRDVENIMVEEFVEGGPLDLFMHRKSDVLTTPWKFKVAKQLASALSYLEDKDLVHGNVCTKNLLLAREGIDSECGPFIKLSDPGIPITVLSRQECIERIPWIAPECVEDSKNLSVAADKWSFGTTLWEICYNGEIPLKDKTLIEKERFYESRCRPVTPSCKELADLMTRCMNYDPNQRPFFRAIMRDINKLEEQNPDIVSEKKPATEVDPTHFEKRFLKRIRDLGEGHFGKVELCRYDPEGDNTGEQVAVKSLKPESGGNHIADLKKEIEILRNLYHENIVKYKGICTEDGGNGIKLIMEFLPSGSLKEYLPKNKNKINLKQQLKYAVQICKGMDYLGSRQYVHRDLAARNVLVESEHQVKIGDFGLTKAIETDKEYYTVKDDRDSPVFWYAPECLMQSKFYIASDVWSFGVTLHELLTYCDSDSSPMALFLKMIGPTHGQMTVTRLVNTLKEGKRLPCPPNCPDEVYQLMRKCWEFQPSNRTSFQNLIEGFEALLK
For data set [6] the target is unchanged. As to the kind of experiment: Inhibition of JAK1-mediated GATA3 phosphorylation in PMA-stimulated human PBMC at 90 uM after 30 mins by Western blot analysis. (In general: A western blot detects proteins with antibodies after separation by electrophoresis.)
Data set [7] has as its system PBMC. As to the kind of experiment: Inhibition of PMA-induced JAK1 expression in human PBMC at 90 uM after 15 mins by Western blot analysis. It counts as functional, cell-based.
In data set [8] the test system is PBMC. As to the kind of experiment: Inhibition of PMA-induced GATA3 expression in human PBMC at 90 uM after 15 mins by Western blot analysis. It counts as functional, cell-based.
The test system of data set [9] is PBMC. As to the kind of experiment: Immunosuppressant activity in human PBMC assessed as reduction in Con A-induced extracellular IL4 level at 90 uM after 72 hrs by ELISA relative to untreated control. The arrangement: scale not given: the % may be the effect or the level left. It is filed as functional. (An ELISA detects its analyte on a solid surface through an enzyme-linked reagent.)

In data set [10] the test system is Mus musculus. As to the kind of experiment: Immunosuppressant activity in C57BL/6 mouse infected with Schistosoma japonicum assessed as inhibition of IFN-gamma production in liver at 100 mM, iv after 45 days by ELISA. It is filed as functional, organism-based.
For data set [11], the system named is Mus musculus. In words: Immunosuppressant activity in C57BL/6 mouse infected with Schistosoma japonicum assessed as inhibition of IFN-gamma production in liver at 100 mM, iv after 56 days by ELISA. It counts as functional, organism-based.
A further data set relates to Schistosoma japonicum. As to the kind of experiment: Antischistosomiasis activity against Schistosoma japonicum infected in C57BL/6 mouse at 100 mM, iv after 45 days. It counts as functional, organism-based.
Data set [12] deals with Mus musculus. As to the kind of experiment: Immunosuppressant activity in C57BL/6 mouse infected with Schistosoma japonicum assessed as decrease in liver granuloma size at 100 mM, iv after 45 days. It counts as functional, organism-based.
The test system of a further data set is Splenocyte. As to the kind of experiment: Immunosuppressant activity in BALB/c mouse splenocytes assessed as reduction in Con A-induced IL4 secretion at 90 uM after 72 hrs by ELISA. It counts as functional, cell-based.
Data set [13] deals with Tyrosine-protein kinase JAK1 (Homo sapiens) (UniProt P23458). In words: Inhibition of PMA-induced JAK1 phosphorylation in human PBMC at 90 uM by Western blot analysis. Particulars: TDE = time-dependent effect.
For data set [14] the target is unchanged. In words: Inhibition of JAK1-mediated GATA3 phosphorylation in PMA-stimulated human PBMC at 90 uM by Western blot analysis. The conditions noted are these: TDE = time-dependent effect.
Data set [15] deals with T-cell. As to the kind of experiment: Immunosuppressant activity in human CD3+ CD4+ T cells pretreated with TritonX 100 assessed as CD4 internalization at 90 uM after 72 hrs by confocal laser scanning microscopy. It counts as functional, cell-based.
Data set [16] has as its system T-cell. In words: Immunosuppressant activity in human CD3+ CD4+ T cells assessed as reduction in CD4 surface expression at 90 uM after 72 hrs by flow cytometry (reference value: 46%). The arrangement: scale not given: the % may be the effect or the level left. It is filed as functional.
For data set [17], the system named is T-cell. In words: Immunosuppressant activity in human CD3+ CD4+ T cells pretreated with TritonX 100 assessed as reduction in CD4 surface expression at 90 uM after 72 hrs by flow cytometry (reference value: 46%). It counts as functional. On the set-up: scale not given: the % may be the effect or the level left.
In data set [18] the test system is PBMC. In words: Induction of apoptosis in Con A-stimulated human PBMC assessed as early apoptotic cells at 90 uM after 72 hrs by annexin V/PI based flow cytometric analysis (reference value: 6.3 %). It is filed as cell-based.
Data set [19] has as its system T-cell. As to the kind of experiment: Inhibition of CD4 expression in human CD4+ T cells. It counts as functional, cell-based.
Data set [20] is described as follows: Induction of apoptosis in Con A-stimulated human PBMC assessed as viable cells at 90 uM after 72 hrs by annexin V/PI based flow cytometric analysis (reference value: 84.6 %). It counts as cell-based. Particulars: read-out: Activity.
The subject of data set [21] is PBMC. As to the kind of experiment: Induction of apoptosis in Con A-stimulated human PBMC assessed as late apoptotic cells at 90 uM after 72 hrs by annexin V/PI based flow cytometric analysis (reference value: 4.3 %). It counts as cell-based.
In data set [22] the test system is PBMC. In words: Induction of apoptosis in Con A-stimulated human PBMC assessed as necrotic cells at 90 uM after 72 hrs by annexin V/PI based flow cytometric analysis (reference value: 5.8 %). It counts as cell-based.
The subject of data set [23] is Mus musculus. As to the kind of experiment: Immunosuppressant activity in C57BL/6 mouse infected with Schistosoma japonicum assessed as inhibition of IL-4 production in spleen at 100 mM, iv after 56 days by ELISA. It is filed as functional, organism-based.
Data set [24] deals with Mus musculus. In words: Immunosuppressant activity in C57BL/6 mouse infected with Schistosoma japonicum assessed as inhibition of IL-4 production in liver at 100 mM, iv after 45 days by ELISA. It is filed as functional, organism-based.
The test system of data set [25] is Mus musculus. In words: Immunosuppressant activity in C57BL/6 mouse infected with Schistosoma japonicum assessed as inhibition of IL-4 production in liver at 100 mM, iv after 56 days by ELISA. It counts as functional, organism-based.
In data set [26] the test system is Mus musculus. As to the kind of experiment: Immunosuppressant activity in C57BL/6 mouse infected with Schistosoma japonicum assessed as inhibition of IFN-gamma production in spleen at 100 mM, iv after 45 days by ELISA. It is filed as functional, organism-based.
The subject of data set [27] is Mus musculus. In words: Immunosuppressant activity in C57BL/6 mouse infected with Schistosoma japonicum assessed as inhibition of IFN-gamma production in spleen at 100 mM, iv after 56 days by ELISA. It counts as functional, organism-based.

Active and inactive are the calls of the source. The calls are words filed in the database; no cut-off is given here.

On to `OC[C@H]1NC[C@@H](O)[C@@H](O)[C@@H]1O` [DEOXYMANNOJIRIMYCIN], for which the Activity with T-cell [1] stood at 1.5%. For the same molecule, the phospho-STAT6 expression level at 90 µM with PBMC [2] is 8.8%. The inhibition result with PBMC [3] and with PBMC [4] was “Active” each time. Besides, the inhibition result (in data set [5]; in data set [6]; with PBMC [7]; in the data set with PBMC [8]) was “inactive” each time.

In the case of `C/C=C/C[C@@H](C)[C@@H](O)[C@H]1C(=O)N[C@@H](CC)C(=O)N(C)CC(=O)N(C)[C@@H](CC(C)C)C(=O)N[C@@H](C(C)C)C(=O)N(C)[C@@H](CC(C)C)C(=O)N[C@@H](C)C(=O)N[C@H](C)C(=O)N(C)[C@@H](CC(C)C)C(=O)N(C)[C@@H](CC(C)C)C(=O)N(C)[C@@H](C(C)C)C(=O)N1C` [CYCLOSPORINE], the Activity is on record as 26% in the data set with PBMC [9] and 0.71% with T-cell [1]. Also, the phospho-STAT6 expression level at 90 µM in the data set on PBMC [2] was determined as 3.7%.

One may read the IC50 as the concentration that inhibits the measured activity by half. As for `OC[C@@H]1[C@@H](O)[C@H](O)[C@@H](O)CN1Cc1c(F)c(F)c(F)c(F)c1F`, the inhibition result in the data set with Mus musculus [10], in the data set with Mus musculus [11], in the data set with PBMC [7], with PBMC [8], in the data set on Mus musculus [24] and with Mus musculus [25] was “inactive” in each case. The inhibition entry in the data set with Mus musculus [26] and in the data set on Mus musculus [27] was “inactive” in each case. In addition, the result in the data set with Schistosoma japonicum, with Mus musculus [12], with Splenocyte and in the data set on T-cell [15] was Active. Also, the Activity in the data set with PBMC [9] was 26%; with T-cell [1], 0.79%; in the data set with T-cell [16], 28%; with T-cell [17], 44%; in the data set on PBMC [18], 7.2%; in the data set on PBMC [21] it was 5.2%. The Activity in the data set with PBMC [22] came out at 4.7%. Besides, the phospho-STAT6 expression level at 90 µM in the data set with PBMC [2] was determined as 4.5%. The inhibition result (with PBMC [3]; with PBMC [4]; in data set [5]; in data set [6]; in the data set with Mus musculus [23]) was “Active” each time. The inhibition entry in data set [13] and in [14] was “tde” each time. The same molecule returned an IC50 in the data set with T-cell [19] of 20.2 µM. Further, the viability at 72 h, 90 µM in data set [20] worked out at 83%.

On to `OC[C@H]1NC[C@H](O)[C@@H](O)[C@@H]1O` [DUVOGLUSTAT], for which, in the data set on PBMC [9], the result was inactive. Also, in the data set with T-cell [1], the Activity was 2.53%. Further, the phospho-STAT6 expression level at 90 µM with PBMC [2] stood at 9.6%. Besides, the inhibition result in the data set on PBMC [3] and in the data set on PBMC [4] was “Active” each time. Also, the inhibition entry (in data set [5]; in [6]; in the data set on PBMC [7]; in the data set with PBMC [8]) was “inactive” each time. For the same molecule, the IC50 with T-cell [19] came to 25.6 µM.
